According to US8440628B2, “Medical compositions containing ghrelin” (Daiichi Sankyo Company, Limited, priority 2002, dated 2013):

Experiments:
[1] = Stability of human ghrelin(1-7)amide in pH-adjusted purified water at 25°C (Example 8); format: physicochemical; conditions: for Peak area ratio to total peak area: 25±2°C
Experimental: Human ghrelin(1-7)amide was dissolved in the purified water with about 0.12 μmol/mL (0.1 mg/mL). The pH of this solution was 5.0. This solution was divided into quarter, and one portion was kept alone and the pH values of the remaining three portions were adjusted to pH 1.8 (with 17 mM of hydrochloric acid), pH 4.1 (with 0.05 mM of hydrochloric acid) and pH 7.9 (with 0.20 mM of sodium hydroxide) respectively, by adding with hydrochloric acid or sodium hydroxide aqueous solution.
These four solutions were stored at 25±2° C. for 1 and 3 day, and after storage, the HPLC analyses of each solutions were conducted to calculate the peak area ratio of human ghrelin(1-7)amide, desacyl human ghrelin(1-7)amide and [3-dehydroalanine]-human ghrelin(1-7)amide to the total peak area.

[2] = Adsorption inhibiting effect of anti-adsorbents on human ghrelin in glass and polypropylene test tubes (Example 9); format: physicochemical; conditions: for Adsorption inhibiting effect: added at 0.01% or 0.1% to human ghrelin 1.0 μg/mL solution; for Human ghrelin concentration of the solution (Initial Conc. = 100): human ghrelin 1.0 μg/mL in 5% mannitol-0.05M glycine hydrochloride buffer (pH 3.5)
Experimental: As the anti-adsorbent, the surfactant, that is, polyoxyethylene sorbitan monooleate (hereinafter, referred to as Tween® 80), and benzalkonium chloride were selected.
The anti-adsorbent was added to this solution with 0.01% or 0.1% concentration.
The human ghrelin concentrations of each solution were measured by HPLC method right after preparation, and these solutions were replaced in glass test tubes. After that, each solution were further replaced in new glass test tubes, and same operation was repeated for 5 and 10 times, then, the human ghrelin concentrations of each treated solution were measured by HPLC method. As a control, the solution not containing anti-adsorbent was examined.
Same procedure was repeated by using test tube made by polypropylene instead of glass test tube.

[3] = compared with human ghrelin; cited from earlier work
[4] = human ghrelin(1-7)amide 0.1 mg/mL in purified water adjusted to pH 1.8 with hydrochloric acid, 1 day after
[5] = human ghrelin(1-7)amide 0.1 mg/mL in purified water adjusted to pH 1.8 with hydrochloric acid, 3 days after
[6] = human ghrelin(1-7)amide 0.1 mg/mL in purified water adjusted to pH 1.8 with hydrochloric acid, before storage
[7] = human ghrelin(1-7)amide 0.1 mg/mL in purified water adjusted to pH 4.1 with hydrochloric acid, 1 day after
[8] = human ghrelin(1-7)amide 0.1 mg/mL in purified water adjusted to pH 4.1 with hydrochloric acid, 3 days after
[9] = human ghrelin(1-7)amide 0.1 mg/mL in purified water adjusted to pH 4.1 with hydrochloric acid, before storage
[10] = human ghrelin(1-7)amide 0.1 mg/mL in purified water adjusted to pH 7.9 with sodium hydroxide, 1 day after
[11] = human ghrelin(1-7)amide 0.1 mg/mL in purified water adjusted to pH 7.9 with sodium hydroxide, 3 days after
[12] = human ghrelin(1-7)amide 0.1 mg/mL in purified water adjusted to pH 7.9 with sodium hydroxide, before storage
[13] = human ghrelin(1-7)amide 0.1 mg/mL in purified water, pH 5.0 (not adjusted), 1 day after
[14] = human ghrelin(1-7)amide 0.1 mg/mL in purified water, pH 5.0 (not adjusted), 3 days after
[15] = human ghrelin(1-7)amide 0.1 mg/mL in purified water, pH 5.0 (not adjusted), before storage
[16] = anti-adsorbent 0.01%, Glass tube, replaced 5 times
[17] = anti-adsorbent 0.01%, Glass tube, replaced 10 times
[18] = anti-adsorbent 0.01%, Initial Conc.
[19] = anti-adsorbent 0.01%, Polypropylene tube, replaced 5 times
[20] = anti-adsorbent 0.01%, Polypropylene tube, replaced 10 times
[21] = anti-adsorbent 0.1%, Glass tube, replaced 5 times
[22] = anti-adsorbent 0.1%, Glass tube, replaced 10 times
[23] = anti-adsorbent 0.1%, Initial Conc.
[24] = anti-adsorbent 0.1%, Polypropylene tube, replaced 5 times
[25] = anti-adsorbent 0.1%, Polypropylene tube, replaced 10 times

Row | Substance | Peak area ratio to total peak area [1, 4] | Peak area ratio to total peak area [1, 5] | Peak area ratio to total peak area [1, 6] | Peak area ratio to total peak area [1, 7] | Peak area ratio to total peak area [1, 8] | Peak area ratio to total peak area [1, 9] | Peak area ratio to total peak area [1, 10] | Peak area ratio to total peak area [1, 11] | Peak area ratio to total peak area [1, 12] | Peak area ratio to total peak area [1, 13] | Peak area ratio to total peak area [1, 14] | Peak area ratio to total peak area [1, 15] | Adsorption inhibiting effect [2] | Human ghrelin concentration of the solution (Initial Conc. = 100) [2, 16] | Human ghrelin concentration of the solution (Initial Conc. = 100) [2, 17] | Human ghrelin concentration of the solution (Initial Conc. = 100) [2, 18] | Human ghrelin concentration of the solution (Initial Conc. = 100) [2, 19] | Human ghrelin concentration of the solution (Initial Conc. = 100) [2, 20] | Human ghrelin concentration of the solution (Initial Conc. = 100) [2, 21] | Human ghrelin concentration of the solution (Initial Conc. = 100) [2, 22] | also measured
1 | desacyl human ghrelin(1-7)amide | 3.75% | 8.89% | 0.98% | 0.73% | 0.77% | 0.72% | 3.21% | 6.21% | 1.12% | 0.73% | 0.79% | 0.70% | – | – | – | – | – | – | – | – | –
2 | benzalkonium chloride | – | – | – | – | – | – | – | – | – | – | – | – | high adsorption inhibiting effect against both glass tube and polypropylene tube | 81 | 64 | 100 | 97 | 96 | 99 | 99 | Human ghrelin concentration of the solution (Initial Conc. = 100) [2, 23]: 100; Human ghrelin concentration of the solution (Initial Conc. = 100) [2, 24]: 99; Human ghrelin concentration of the solution (Initial Conc. = 100) [2, 25]: 101
3 | [3-dehydroalanine]-human ghrelin(1-7)amide | 0.07% | 0.10% | 0.02% | 0.03% | 0.01% | 0.00% | 0.23% | 0.54% | 0.03% | 0.02% | 0.06% | 0.00% | – | – | – | – | – | – | – | – | –
4 | Human ghrelin(1-7)amide | 95.40% | 90.11% | 98.39% | 98.68% | 98.60% | 98.76% | 95.89% | 92.54% | 98.22% | 98.57% | 98.51% | 98.69% | – | – | – | – | – | – | – | – | Biological activity [3]: same biological activity as human ghrelin; Production of the degradation products ([1]; aqueous solution of pH 4.1 and 5.0, 25±2°C, up to 3 days): inhibited; Peak area ratio to total peak area ([1]; human ghrelin(1-7)amide 0.1 mg/mL in purified water adjusted to pH 1.8 with hydrochloric acid, 1 day after, listed as human ghrelin(1-7)amide): less than 98%; Peak area ratio to total peak area ([1]; human ghrelin(1-7)amide 0.1 mg/mL in purified water adjusted to pH 7.9 with sodium hydroxide, 1 day after, listed as human ghrelin(1-7)amide): less than 98%; pH of the solution ([1]; human ghrelin(1-7)amide dissolved in purified water, about 0.12 μmol/mL (0.1 mg/mL)): 5.0
5 | polyoxyethylene sorbitan monooleate [Tween 80] | – | – | – | – | – | – | – | – | – | – | – | – | high adsorption inhibiting effect against polypropylene tube | 17 | 0 | 100 | 90 | 90 | 20 | 5 | Human ghrelin concentration of the solution (Initial Conc. = 100) [2, 23]: 100; Human ghrelin concentration of the solution (Initial Conc. = 100) [2, 24]: 93; Human ghrelin concentration of the solution (Initial Conc. = 100) [2, 25]: 91
